From paper PMC10196831, “Therapeutic effect of ultra-long-lasting human C-peptide delivery against hyperglycemia-induced neovascularization in diabetic retinopathy” (Theranostics, 2023)

Key:
[1] = Intraocular C-peptide levels by human C-peptide ELISA after intravitreal injection; type: in vivo, C57BL/6 mice; settings: C57BL/6, mouse, 1.2 ug, single intravitreal injection of equimolar K9-C-peptide (20 μg) or human C-peptide (1.2 μg), whole eyeball lysate, 50 kDa cutoff filtrate, n = 6, read-out: intraocular human C-peptide level at 1 day after injection
Experimental: To analyze the levels of C-peptide released from intravitreal K9-C-peptide depots, mice were anesthetized with 3% isoflurane and intravitreally injected with a total volume of 2 μL containing 0.6 mg/mL (1.2 μg) C-peptide or 10 mg/mL (20 μg) K9-C-peptide. Proteins were extracted from whole eyeballs using lysis buffer containing 50 mmol/L Tris (pH 7.5), 150 mmol/L sodium chloride, 1% Triton X-100, protease inhibitor cocktail (Roche, Basel, Switzerland), 25 mmol/L β-glycerophosphate, and 2 mmol/L sodium orthovanadate. The lysates were centrifuged at 14,000 rpm for 15 min, and then the supernatants were centrifuged at 8,000 rpm for 10 min using Amicon® Ultra 4 mL centrifugal filters with a molecular weight cutoff of 50 kDa (MilliporeSigma). C-peptide levels in the filtered supernatants (n = 6) were measured using a human C-peptide ELISA kit (MilliporeSigma) according to the manufacturer's protocol.

[2] = in vivo; cited from earlier work

level at time molar at 24 h [1]: 0.07 nM
Compound: CC(C)C[C@H](NC(=O)[C@H](C)NC(=O)[C@H](CC(C)C)NC(=O)[C@@H]1CCCN1C(=O)[C@H](CCC(N)=O)NC(=O)[C@H](CC(C)C)NC(=O)[C@H](CO)NC(=O)CNC(=O)[C@H](C)NC(=O)CNC(=O)[C@@H]1CCCN1C(=O)CNC(=O)CNC(=O)CNC(=O)[C@H](CC(C)C)NC(=O)[C@H](CCC(=O)O)NC(=O)[C@@H](NC(=O)[C@H](CCC(N)=O)NC(=O)CNC(=O)[C@@H](NC(=O)[C@H](CCC(N)=O)NC(=O)[C@H](CC(C)C)NC(=O)[C@H](CC(=O)O)NC(=O)[C@H](CCC(=O)O)NC(=O)[C@H](C)NC(=O)[C@@H](N)CCC(=O)O)C(C)C)C(C)C)C(=O)N[C@@H](CCC(=O)O)C(=O)NCC(=O)N[C@@H](CO)C(=O)N[C@@H](CC(C)C)C(=O)N[C@@H](CCC(N)=O)C(=O)O [human C-peptide]
circulating half-life [2]: 30 min
